# Results from PubChem BioAssay (NCI).
#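 Interpolation was linear, between the two tested concentrations surrounding the appropriate level; five concentrations were tested over 48 hours in 96-well plates. Abbreviation: GI50, concentration required for 50% inhibition of growth. The concentration for full growth arrest is given as TGI.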
# System: NCI-H522 lung
# Assay: inhibition of tumour cell growth, NCI panel, 48 h
SMILES,GI50 [µM],TGI [µM]
CSc1ccc(C2=NN(C(=O)c3ccc(F)cc3)C(c3ccc(F)cc3)C2)cc1 (configuration not stated),13.3,27.7
CC[C@H](NC(=O)[C@H](C)NC)C(=O)N1C[C@@H](O)C[C@H]1Cc1c(-c2[nH]c3cc(F)ccc3c2C[C@@H]2C[C@H](O)CN2C(=O)[C@H](CC)NC(=O)[C@H](C)NC)[nH]c2cc(F)ccc12,8.21,35.1
Cc1ccccc1NC(=O)N/C(N)=N/c1nc(-c2cccc([N+](=O)[O-])c2)cs1,1.79,> 100

# System: 786-0 renal
# Assay: inhibition of tumour cell growth, NCI panel, 48 h
SMILES,TGI [µM],GI50 [µM]
CCOC(=O)C(Cl)(NC(=O)NC(Cl)(C(=O)OCC)C(F)(F)F)C(F)(F)F (configuration not stated),> 100,–
CSc1ccc(C2=NN(C(=O)c3ccc(F)cc3)C(c3ccc(F)cc3)C2)cc1 (configuration not stated),30.7,15.5
CC[C@H](NC(=O)[C@H](C)NC)C(=O)N1C[C@@H](O)C[C@H]1Cc1c(-c2[nH]c3cc(F)ccc3c2C[C@@H]2C[C@H](O)CN2C(=O)[C@H](CC)NC(=O)[C@H](C)NC)[nH]c2cc(F)ccc12,> 100,> 100
Cc1ccccc1NC(=O)N/C(N)=N/c1nc(-c2cccc([N+](=O)[O-])c2)cs1,4.55,2.21

# System: HCC-2998 colon
# Assay: inhibition of tumour cell growth, NCI panel, 48 h
SMILES,TGI [µM],GI50 [µM]
CCOC(=O)C(Cl)(NC(=O)NC(Cl)(C(=O)OCC)C(F)(F)F)C(F)(F)F (configuration not stated),> 100,–
CSc1ccc(C2=NN(C(=O)c3ccc(F)cc3)C(c3ccc(F)cc3)C2)cc1 (configuration not stated),25.6,12.3
CC[C@H](NC(=O)[C@H](C)NC)C(=O)N1C[C@@H](O)C[C@H]1Cc1c(-c2[nH]c3cc(F)ccc3c2C[C@@H]2C[C@H](O)CN2C(=O)[C@H](CC)NC(=O)[C@H](C)NC)[nH]c2cc(F)ccc12,> 100,96.9
Cc1ccccc1NC(=O)N/C(N)=N/c1nc(-c2cccc([N+](=O)[O-])c2)cs1,> 100,3.16

# System: SR leukemia
# Assay: inhibition of tumour cell growth, NCI panel, 48 h
SMILES,TGI [µM],GI50 [µM]
CCOC(=O)C(Cl)(NC(=O)NC(Cl)(C(=O)OCC)C(F)(F)F)C(F)(F)F (configuration not stated),> 100,–
CSc1ccc(C2=NN(C(=O)c3ccc(F)cc3)C(c3ccc(F)cc3)C2)cc1 (configuration not stated),5.95,1.71
CC[C@H](NC(=O)[C@H](C)NC)C(=O)N1C[C@@H](O)C[C@H]1Cc1c(-c2[nH]c3cc(F)ccc3c2C[C@@H]2C[C@H](O)CN2C(=O)[C@H](CC)NC(=O)[C@H](C)NC)[nH]c2cc(F)ccc12,> 100,15.5
Cc1ccccc1NC(=O)N/C(N)=N/c1nc(-c2cccc([N+](=O)[O-])c2)cs1,> 100,0.594

# System: HOP-92 NSCLC
# Assay: inhibition of tumour cell growth, NCI panel, 48 h
SMILES,TGI [µM],GI50 [µM]
CC(=O)N1C(=O)CC2(N=C(C)CC2=O)c2ccccc21 (configuration not stated),> 10,–
CSc1ccc(C2=NN(C(=O)c3ccc(F)cc3)C(c3ccc(F)cc3)C2)cc1 (configuration not stated),24.6,9.72
CC[C@H](NC(=O)[C@H](C)NC)C(=O)N1C[C@@H](O)C[C@H]1Cc1c(-c2[nH]c3cc(F)ccc3c2C[C@@H]2C[C@H](O)CN2C(=O)[C@H](CC)NC(=O)[C@H](C)NC)[nH]c2cc(F)ccc12,40.8,7.7
Cc1ccccc1NC(=O)N/C(N)=N/c1nc(-c2cccc([N+](=O)[O-])c2)cs1,6.6,2.15

# System: MDA-MB-231 breast
# Assay: inhibition of tumour cell growth, NCI panel, 48 h
SMILES,TGI [µM],GI50 [µM]
CC(=O)N1C(=O)CC2(N=C(C)CC2=O)c2ccccc21 (configuration not stated),> 10,–
CSc1ccc(C2=NN(C(=O)c3ccc(F)cc3)C(c3ccc(F)cc3)C2)cc1 (configuration not stated),32.3,14
CC[C@H](NC(=O)[C@H](C)NC)C(=O)N1C[C@@H](O)C[C@H]1Cc1c(-c2[nH]c3cc(F)ccc3c2C[C@@H]2C[C@H](O)CN2C(=O)[C@H](CC)NC(=O)[C@H](C)NC)[nH]c2cc(F)ccc12,2.18,0.0349
Cc1ccccc1NC(=O)N/C(N)=N/c1nc(-c2cccc([N+](=O)[O-])c2)cs1,4.03,1.6

# System: OVCAR-3 ovarian
# Assay: inhibition of tumour cell growth, NCI panel, 48 h
SMILES,TGI [µM],GI50 [µM]
CC(=O)N1C(=O)CC2(N=C(C)CC2=O)c2ccccc21 (configuration not stated),> 10,–
CSc1ccc(C2=NN(C(=O)c3ccc(F)cc3)C(c3ccc(F)cc3)C2)cc1 (configuration not stated),22.5,10.3
CC[C@H](NC(=O)[C@H](C)NC)C(=O)N1C[C@@H](O)C[C@H]1Cc1c(-c2[nH]c3cc(F)ccc3c2C[C@@H]2C[C@H](O)CN2C(=O)[C@H](CC)NC(=O)[C@H](C)NC)[nH]c2cc(F)ccc12,> 100,> 100
Cc1ccccc1NC(=O)N/C(N)=N/c1nc(-c2cccc([N+](=O)[O-])c2)cs1,4.41,1.72

# System: SNB-75 CNS
# Assay: inhibition of tumour cell growth, NCI panel, 48 h
SMILES,TGI [µM],GI50 [µM]
CCOC(=O)C(Cl)(NC(=O)NC(Cl)(C(=O)OCC)C(F)(F)F)C(F)(F)F (configuration not stated),> 100,–
CC(=O)N1C(=O)CC2(N=C(C)CC2=O)c2ccccc21 (configuration not stated),> 10,–
CSc1ccc(C2=NN(C(=O)c3ccc(F)cc3)C(c3ccc(F)cc3)C2)cc1 (configuration not stated),26,13.1
